Legend:
[1] = biological target: T1, T862A HER2 receptor (Homo sapiens, UniProt P04626, T862A); assay: HER2 reporter cells transfected with linear expression cassette of T862A HER2, all-in-one method; type: cell-based; conditions: 24 hours post-transfection
T1 construct: expressed in transfected cells; host or cells: HER2 reporter cells (clone #1)
From the text: T862A corresponds to a missense mutation of HER2, which changes Threonine (T) into Alanine (A) at amino acid position of 862. In order to functionally characterize this mutation, PCR-mediated overlapping extension was employed to construct a linear expression cassette of HER2 carrying this mutation. The linear expression cassette of mutant HER2 DNA was transfected into the reporter cells followed by treatment with NRG1 and its inhibitors using the “all-in-one” method. The luciferase reporter activity was measured 24 hours post-transfection.

[2] = biological target: T2, L755S HER2 receptor (Homo sapiens, UniProt P04626, L755S); assay: HER2 reporter cells transfected with linear expression cassette of L755S HER2, all-in-one method; type: cell-based; conditions: 24 hours post-transfection
T2 construct: expressed in transfected cells; host or cells: HER2 reporter cells (clone #1)
From the text: L755S corresponds to a missense mutation of HER2, which changes leucine (L) into serine (S) at amino acid position of 755. In order to functionally characterize this mutation, PCR-mediated overlapping extension was employed to construct linear expression cassette of HER2 carrying this mutation. The linear expression cassette of mutant HER2 DNA was first transfected into the reporter cells followed by treatment with NRG1 and its inhibitors using the “all-in-one” method. The luciferase reporter activity was measured 24 hours post-transfection.

[3] = biological target: HER2 receptor (Homo sapiens, UniProt P04626); assay: Luciferase reporters (ERK-Luc, FRE-Luc, JNK-Luc, NFkB-Luc) in HEK293 cells overexpressing HER2, treated with lapatinib; type: cell-based; conditions: 10 nM, 4 hours
Description: In order to identify a reporter to measure the activity of HER2 receptor, the HEK293 cells were transfected with different reporter constructs, including ERK-Luc, FRE-Luc, JNK-Luc and NFkB-Luc, in the absence or presence of HER2 expression plasmid. After 24 hours, the luciferase reporter activity of the transfected cells was measured by Nano-Glo® Luciferase Assay (Promega). […] The luciferase reporter activity of the transfected cells was measured by Nano-Glo® Luciferase Assay (Promega). […] For cell transfection experiments, HEK293 cells (ATCC) were plated at density of 4-8×10^4 cells per well (96-well plates) or 1-2×10^4 cells per well (384-well plates) in phenol red-free MEM containing 10% FBS and antibiotics. Either DNA plasmid or linear DNA was mixed with TransIT-293 transfection reagent (Mirus Bio LLC). Once cells were trypsinized, DNA transfection mix was added. The cells were then incubated for 24 or 48 hours.

[4] = biological target: T3, P780ins HER2 receptor (Homo sapiens, UniProt P04626, INS780GSP); assay: HER2 reporter cells transfected with linear expression cassette of P780ins HER2, all-in-one method; type: cell-based
T3 construct: expressed in transfected cells; host or cells: HER2 reporter cells (clone #1)
From the text: P780ins corresponds to an insertion mutation of HER2, which adds 3 amino acids (GSP) after the amino acid position of […] (Proline—P). In order to functionally characterize this mutation, PCR-mediated overlapping extension was employed to construct linear expression cassette of HER2 carrying this insertion. The linear expression cassette of mutant HER2 DNA was first transfected into the reporter cells followed by treatment with NRG1 and its inhibitors using the “all-in-one” method. The luciferase reporter activity was measured 24 hours post-transfection.

[5] = tested on: HER1, HER2 and HER3 receptors; assay: ERK-Luc, JNK-Luc and NFkB-Luc reporters in HEK293 cells co-transfected with HER1, HER2 and HER3, treated with ligand; type: cell-based, human; conditions: ligand 6 hours; HER1, HER2, HER3 co-transfected HEK293
Description: In order to identify reporters to measure the activity of HER2 receptor, expression plasmids of HER1, HER2 and HER3 were co-transfected with different reporter constructs, including ERK-Luc, JNK-Luc and NFkB-Luc, into the HEK293 cells. After 24 hours, the transfected cells were treated with either EGF (HER1 receptor ligand) or NRG1 (HER3 receptor ligand) for 6 hours. The luciferase reporter activity of the transfected cells was measured by Nano-Glo® Luciferase Assay (Promega). […] JNK-Luc reporter was activated when the transfected cells were treated with either HER1 or HER3 ligand (FIG. 11B).
(§1) For cell transfection experiments, HEK293 cells (ATCC) were plated at density of 4-8×10^4 cells per well (96-well plates) or 1-2×10^4 cells per well (384-well plates) in phenol red-free MEM containing 10% FBS and antibiotics. Either DNA plasmid or linear DNA was mixed with TransIT-293 transfection reagent (Mirus Bio LLC). Once cells were trypsinized, DNA transfection mix was added. The cells were then incubated for 24 or 48 hours.

[6] = tested on: HER1 and HER2 receptors; assay: JNK-Luc reporter in HEK293 cells with HER1 and wild-type or kinase-dead HER2, treated with EGF; type: cell-based, human; conditions: HER1 plus wild-type or kinase-dead HER2
Description: In order to characterize the specificity of activation of JNK-Luc reporter upon treatment of HER1 ligand, JNK-Luc was co-transfected with expression plasmids of HER1 and wild-type or kinase-dead HER2 receptors into the HEK293 cells. After 24 hours, the transfected cells were treated with EGF (HER1 receptor ligand). The luciferase reporter activity of the transfected cells was measured by Nano-Glo® Luciferase Assay (Promega). In FIG. 12, no difference was found between the cells transfected with wild-type HER2 and kinase-dead HER2.
as §1

Row | Compound | reporter activity after HER2 inhibitor in the presence of NRG1 [1] | reporter activity after HER2 inhibitor in the presence of NRG1 [2] | inhibition of increased reporter activities upon HER2 expression [3] | reporter activity after HER2 inhibitor in the presence of NRG1 ([4]; all-in-one method, 24 hours post-transfection) | activity retained compared to the cells without the treatment of inhibitor ([4]; high concentration of lapatinib, in the presence of NRG1) | JNK-Luc reporter activation [5] | NFkB-Luc reporter activation [5] | JNK-Luc reporter activation [6]
1 | CS(=O)(=O)CCNCc1ccc(-c2ccc3ncnc(Nc4ccc(OCc5cccc(F)c5)c(Cl)c4)c3c2)o1 [Lapatinib] | did not respond | did not respond | did not inhibit | very minor reduction of reporter activity | more than 75% |  |  | 
2 | EGF: HER1 receptor ligand (NSDSECPLSHDGYCLHDGVCMYIEALDKYACNCVVGYIGERCQYRDLKWWELR) |  |  |  |  |  | activated | no activation | effectively activated

Source: patent publication US11319601B2, “Cell based assay” (Medical Diagnostic Laboratories, L.L.C., priority 2017, dated 2022)
